# Test results as given in patent US10183021B2, “sGC stimulators” (Ironwood Pharmaceuticals, Inc., priority 2013, dated 2019).
# Like-named read-outs stand apart in the source and are kept apart here.
# Molecular target: soluble guanylate cyclase (sGC) (Homo sapiens (Human), UniProt Q02108+Q02153)
# Assay: sGC-HEK-cGMP assay with SNP incubation, LC/MS detection (Example 2A)
# Format: cell-based
# Conditions: HEK293 cells, 10 μM SNP, LC/MS detection; for Emax: 100% = BAY 41-2272 at 10 μM, read-out: HEK assay Emax - unconstrained (%)
# Description: Human embryonic kidney cells (HEK293), endogenously expressing soluble guanylate cyclase (sGC), were used to evaluate the activity of test compounds. Compounds stimulating the sGC receptor should cause an increase in the intracellular concentration of cGMP. HEK 293 cells were seeded in Dulbecco's Modification of Eagle's Medium supplemented with fetal bovine serum (10% final) and L-glutamine (2 mM final) in a 200 L volume at a density of 1×10^5 cells/well in a poly-D-lysine coated 96 well flat bottom plate and grown overnight at 37° C. Medium was aspirated and cells were washed with 1× Hank's Buffered Saline Salt Solution (200 μL). Cells were then incubated for 15 minutes at 37° C. with 200 μL of a 0.5 mM 3-isobutyl-1-methylxanthine (IBMX) solution. Test article and sodium nitroprusside solutions (x μM concentration for test article solution and 10 μM concentration for SNP solution; wherein x is one of the following concentrations: 30 μM, 10 μM, 3 μM, 1 μM, 0.3 μM, 0.1 μM, 0.03 μM, 0.01 μM, 0.003 μM, 0.001 μM, 0.0003 μM or 0.0001 μM) were then added to the assay mixture (2 μL each) and the resulting mixture incubated at 37° C. for 10 minutes. After the 10 minute incubation, the assay mixture was aspirated and 0.1M HCl (200 μL) was added to the cells. The plate was incubated at 4° C. for 30 minutes in the 0.1M HCl to stop the reaction and lyse the cells. The plates were then centrifuged at 1,200 g for 5 minutes at room temperature. Supernatants were collected and transferred to a new flat bottom 96 well plate for analysis by HPLC-MS. Vehicle controls were carried out using DMSO (1%) solutions. A known sGC stimulator, BAY 41-2272, was used as the positive control. Samples were diluted with an equal volume of 1 M Ammonium Acetate (pH 7) to neutralize samples for better chromatography. A 2× cGMP standard solution was prepared in 0.1 M HCl and then diluted with an equal volume of 1 M Ammonium Acetate, with the following final concentrations in nM: 1024, 512, 256, 128, 64, 32, 16, 8, 4, 2, 1. cGMP concentrations in the test plates were determined from each sample using the LC/MS conditions shown in Table 2 below and the calculated cGMP standard curve. EC50 values were calculated from concentration-response curves generated with GraphPad Prism Software. Data were normalized to a high control using the following equation: 100*(Sample−Low Control)/(High Control−Low Control), where the low control is the average of 6 samples treated with 1% DMSO, and the high control is the average of 8-12 samples treated with 10 uM BAY 41-2272. Data were fit using a non-linear regression, sigmoidal dose response, 3 parameter fits.
# [1] = top of curve not fitted to 100%, read-out: HEK assay EC50 - unconstrained
# [2] = top of curve fitted to 100%, read-out: HEK assay EC50 - constrained
# Chain of soluble guanylate cyclase (sGC) (Q02153 whole entry): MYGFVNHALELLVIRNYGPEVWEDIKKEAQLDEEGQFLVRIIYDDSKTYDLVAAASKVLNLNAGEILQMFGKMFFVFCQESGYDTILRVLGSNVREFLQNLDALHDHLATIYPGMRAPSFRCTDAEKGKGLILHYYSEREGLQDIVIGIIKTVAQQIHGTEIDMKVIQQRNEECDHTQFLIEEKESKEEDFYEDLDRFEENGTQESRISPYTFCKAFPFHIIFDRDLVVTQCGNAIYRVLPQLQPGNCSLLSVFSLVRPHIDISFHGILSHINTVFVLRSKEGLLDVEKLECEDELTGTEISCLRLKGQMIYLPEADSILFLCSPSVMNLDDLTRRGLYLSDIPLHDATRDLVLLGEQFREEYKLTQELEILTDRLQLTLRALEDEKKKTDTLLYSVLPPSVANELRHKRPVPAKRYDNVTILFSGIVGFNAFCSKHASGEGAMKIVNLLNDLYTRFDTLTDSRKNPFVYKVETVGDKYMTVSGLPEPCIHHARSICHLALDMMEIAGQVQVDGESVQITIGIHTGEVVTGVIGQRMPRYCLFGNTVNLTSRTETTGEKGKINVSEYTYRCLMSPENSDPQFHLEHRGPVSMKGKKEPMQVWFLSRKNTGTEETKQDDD
# Chain of soluble guanylate cyclase (sGC) (Q02108 whole entry): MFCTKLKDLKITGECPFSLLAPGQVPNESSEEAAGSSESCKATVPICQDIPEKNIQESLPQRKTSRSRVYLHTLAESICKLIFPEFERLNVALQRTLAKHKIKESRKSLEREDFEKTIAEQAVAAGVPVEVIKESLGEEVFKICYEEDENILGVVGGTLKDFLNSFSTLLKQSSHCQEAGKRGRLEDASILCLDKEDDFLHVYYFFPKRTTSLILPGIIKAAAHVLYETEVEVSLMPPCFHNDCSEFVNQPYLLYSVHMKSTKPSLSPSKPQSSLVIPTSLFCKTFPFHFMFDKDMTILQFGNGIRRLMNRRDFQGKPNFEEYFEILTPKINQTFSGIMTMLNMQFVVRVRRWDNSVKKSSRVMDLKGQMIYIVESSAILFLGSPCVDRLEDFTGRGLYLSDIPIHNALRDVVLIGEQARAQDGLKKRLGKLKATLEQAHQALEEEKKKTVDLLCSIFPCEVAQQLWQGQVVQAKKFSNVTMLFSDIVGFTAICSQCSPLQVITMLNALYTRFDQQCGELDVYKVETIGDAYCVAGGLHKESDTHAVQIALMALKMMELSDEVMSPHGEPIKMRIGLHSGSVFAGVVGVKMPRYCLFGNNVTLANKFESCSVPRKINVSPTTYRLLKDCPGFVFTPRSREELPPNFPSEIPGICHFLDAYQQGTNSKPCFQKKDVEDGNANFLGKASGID
Compound,Emax [%],EC50 [1] [nM],EC50 [2] [nM]
OCC1C[C@H]2CC[C@@H](C1)N2c1nc(-c2cc(-c3ccon3)n(Cc3ccccc3F)n2)ncc1F (some centres unmarked) [Compound I-82],60 to 80,100 to 500,
O=C(O)C1CN(c2nc(-c3cc(-c4ccon4)n(Cc4ccccc4F)n3)ncc2F)CCO1 (centres unmarked) [Compound I-83],,,> 10000
O=C(O)C1C2CCC(C2)N1c1nc(-c2cc(-c3ccon3)n(Cc3ccccc3F)n2)ncc1F (centres unmarked) [Compound I-92],60 to 80,1000 to 5000,
Cc1noc(C2CCCCN2c2nc(-c3cc(-c4ccon4)n(Cc4ccccc4F)n3)ncc2F)n1 (centres unmarked) [Compound I-98],40 to 60,1000 to 5000,
NC(=O)C1CCCCN1c1nc(-c2cc(-c3ccon3)n(Cc3ccccc3F)n2)ncc1F (centres unmarked) [Compound I-105],40 to 60,100 to 500,
O=C1CCCCCN1CCCNc1nc(-c2cc(-c3ccon3)n(Cc3ccccc3F)n2)ncc1F [Compound I-109],60 to 80,100 to 500,
CC(C)(C)OC(=O)N1CCC(Nc2nc(-c3cc(-c4ccon4)n(Cc4ccccc4F)n3)ncc2F)(C(=O)O)CC1 [Compound I-110],20 to 40,> 10000,
Fc1ccccc1Cn1nc(-c2ncc(F)c(N3CCn4cnnc4C3)n2)cc1-c1ccon1 [Compound I-113],60 to 80,500 to 1000,
CCOC(=O)c1nnc2n1CCN(c1nc(-c3cc(-c4ccon4)n(Cc4ccccc4F)n3)ncc1F)C2 [Compound I-115],40 to 60,1 to 100,
N#CC1CCN(c2nc(-c3cc(-c4ccon4)n(Cc4ccccc4F)n3)ncc2F)CC1 [Compound I-123],60 to 80,100 to 500,
CS(=O)(=O)N1CCN(c2nc(-c3cc(-c4ccon4)n(Cc4ccccc4F)n3)ncc2F)CC1 [Compound I-125],40 to 60,1 to 100,
CC(C)C[C@@H](C(=O)O)N(C)c1nc(-c2cc(-c3ccon3)n(Cc3ccccc3F)n2)ncc1F [Compound I-137],80 to 100,100 to 500,
CC(C)(C)OC(=O)NS(=O)(=O)N1CCN(c2nc(-c3cc(-c4ccon4)n(Cc4ccccc4F)n3)ncc2F)CC1 [Compound I-139],80 to 100,100 to 500,
O=C(NS(=O)(=O)C1CC1)C1CCCCN1c1nc(-c2cc(-c3ccon3)n(Cc3ccccc3F)n2)ncc1F (centres unmarked) [Compound I-144],80 to 100,500 to 1000,
Fc1ccccc1Cn1nc(-c2ncc(F)c(N3CCC(c4nnn[nH]4)CC3)n2)cc1-c1ccon1 [Compound I-145],80 to 100,1000 to 5000,
Fc1ccccc1Cn1nc(-c2ncc(F)c(NCc3nn[nH]n3)n2)cc1-c1ccon1 [Compound I-146],80 to 100,100 to 500,
Fc1ccccc1Cn1nc(-c2nc(Cl)c(F)c(N3CCOCC3)n2)cc1-c1ccon1 [Compound I-150],40 to 60,100 to 500,
CC1(C)CN(c2nc(-c3cc(-c4ccon4)n(Cc4ccccc4F)n3)ncc2F)CC1C(=O)O (centres unmarked) [Compound I-152],80 to 100,1 to 100,
O=C(O)C1CCCCC1Nc1nc(-c2cc(-c3ccon3)n(Cc3ccccc3F)n2)ncc1F (centres unmarked) [Compound I-154],60 to 80,100 to 500,
OC[C@H]1CCCN1c1nc(-c2cc(-c3ccon3)n(Cc3ccccc3F)n2)ncc1F [Compound I-155],60 to 80,100 to 500,
O=C(O)[C@H]1CCC[C@H]1Nc1nc(-c2cc(-c3ccon3)n(Cc3ccccc3F)n2)ncc1F [Compound I-156],80 to 100,100 to 500,
CC(C)C[C@H](Nc1nc(-c2cc(-c3ccon3)n(Cc3ccccc3F)n2)ncc1F)C(=O)NS(=O)(=O)C1CC1 [Compound I-157],60 to 80,100 to 500,
CNS(=O)(=O)N1CCN(c2nc(-c3cc(-c4ccon4)n(Cc4ccccc4F)n3)ncc2F)CC1 [Compound I-158],60 to 80,1 to 100,
CCOC(=O)CN(C)c1nc(-c2cc(-c3ccon3)n(Cc3ccccc3F)n2)ncc1F [Compound I-167],80 to 100,1 to 100,

# The next lines start with the values.
Emax [%],EC50 [1] [nM],EC50 [2] [nM],Compound
80 to 100,500 to 1000,,O=C(O)[C@H](Cc1ccccc1)Nc1nc(-c2cc(-c3ccon3)n(Cc3ccccc3F)n2)ncc1F [Compound I-80]
80 to 100,100 to 500,,CC(C)[C@@H](Nc1nc(-c2cc(-c3ccon3)n(Cc3ccccc3F)n2)ncc1F)C(=O)O [Compound I-86]
40 to 60,5000 to 10000,,O=C(O)[C@H]1Cc2ccccc2N1c1nc(-c2cc(-c3ccon3)n(Cc3ccccc3F)n2)ncc1F [Compound I-91]
60 to 80,1000 to 5000,,O=C(O)C1(Nc2nc(-c3cc(-c4ccon4)n(Cc4ccccc4F)n3)ncc2F)CCC1 [Compound I-94]
60 to 80,1 to 100,,O=C(O)C1c2ccccc2CCN1c1nc(-c2cc(-c3ccon3)n(Cc3ccccc3F)n2)ncc1F (centres unmarked) [Compound I-97]
60 to 80,1000 to 5000,,O=C(O)C(Nc1nc(-c2cc(-c3ccon3)n(Cc3ccccc3F)n2)ncc1F)C1COC1 (centres unmarked) [Compound I-102]
80 to 100,1 to 100,,CC(C)C[C@@H](Nc1nc(-c2cc(-c3ccon3)n(Cc3ccccc3F)n2)ncc1F)C(=O)O [Compound I-103]
20 to 40,1000 to 5000,,O=C(O)[C@@H](CO)Nc1nc(-c2cc(-c3ccon3)n(Cc3ccccc3F)n2)ncc1F [Compound I-112]
60 to 80,100 to 500,,O=C(O)[C@@H](Cc1ccccc1)Nc1nc(-c2cc(-c3ccon3)n(Cc3ccccc3F)n2)ncc1F [Compound I-116]
40 to 60,1000 to 5000,,O=C(O)[C@@H](Nc1nc(-c2cc(-c3ccon3)n(Cc3ccccc3F)n2)ncc1F)c1ccccc1 [Compound I-117]
80 to 100,1000 to 5000,,O=C(O)[C@H](Nc1nc(-c2cc(-c3ccon3)n(Cc3ccccc3F)n2)ncc1F)c1ccccc1 [Compound I-118]
40 to 60,100 to 500,,O=C(O)C1Cc2ccccc2CN1c1nc(-c2cc(-c3ccon3)n(Cc3ccccc3F)n2)ncc1F (centres unmarked) [Compound I-119]
60 to 80,100 to 500,,O=C(O)[C@@H]1c2ccccc2CCN1c1nc(-c2cc(-c3ccon3)n(Cc3ccccc3F)n2)ncc1F [Compound I-120]
60 to 80,100 to 500,,N#CCNc1nc(-c2cc(-c3ccon3)n(Cc3ccccc3F)n2)ncc1F [Compound I-141]
80 to 100,100 to 500,,CC(C)(C)[C@@H](Nc1nc(-c2cc(-c3ccon3)n(Cc3ccccc3F)n2)ncc1F)C(=O)O [Compound I-148]
60 to 80,500 to 1000,,CC(C)(C)[C@H](Nc1nc(-c2cc(-c3ccon3)n(Cc3ccccc3F)n2)ncc1F)C(=O)O [Compound I-151]
60 to 80,100 to 500,,CN(c1ccccc1C(=O)O)c1nc(-c2cc(-c3ccon3)n(Cc3ccccc3F)n2)ncc1F [Compound I-153]
,,> 10000,O=C(O)[C@@H](Cc1ccc(O)cc1)Nc1nc(-c2cc(-c3ccon3)n(Cc3ccccc3F)n2)ncc1F [Compound I-165]
40 to 60,100 to 500,,CCOC(=O)CN(Cc1ccccc1)c1nc(-c2cc(-c3ccon3)n(Cc3ccccc3F)n2)ncc1F [Compound I-166]
60 to 80,100 to 500,,O=C(O)CN(Cc1ccccc1)c1nc(-c2cc(-c3ccon3)n(Cc3ccccc3F)n2)ncc1F [Compound I-168]
